Measured values reported in patent publication US4749798A, “Fluoro coumarins as antilymphoedema agents” (priority 1984, dated 1988).
Entries after “also recorded” stand apart in the source; their conditions may differ. Like-named read-outs stand apart in the source and are kept apart here.

Legend:
[1] = tested on: burning induced oedema of hind paws; assay: burning induced oedema test; assay type: in vivo, Sprague-Dawley male rats; settings: for activity relative to 6-fluoro coumarin (equiactive): burning induced oedema; for % inhibition / Paw volume, DV: 12 h
Protocol: Reduction of the burning induced oedema test has been also used to evidentiate the antiinflammatory activity and the proteolytic mechanism of action of the compounds of the invention. 18 hours-fasted Sprague-Dawley male rats, body weight: 170-220 g, are used in this testing procedure. The animals are divided into five animal groups and the volume (in ml) of the posterior hind paws is measured before these paws are burnt by immersion for 22 seconds in 55° C. heated water. 15 minutes after burning, the animals are treated, by oral route, with different dosages of the investigated compounds and placebo. The volume of paws is measured 6, 12 and 18 hours after burning and the increased volume of the paws is evaluated.

[2] = tested on: carrageenan induced edema of the rats hind paw; assay: carrageenan induced edema of the rat hind paw; assay type: in vivo; settings: for activity relative to coumarin: "at least 1.5-2.5 times more active than coumarin"; for reduction of carrageenan induced edema: at all the times (1; 3; 4 and 5 h)
Description: 6-fluoro coumarin and the compounds of the invention are also effective in the management of the acute inflammation.
The carrageenan edema test proposed by Winter C. A., Risley A., Noss G. W. (Proc. Soc. Exp. Biol., 101, 544, 1962) was used.
The compounds, administered i.p. 30' before the carrageenan as suspension in 1% aqueous carboxymethylcellulose homogeneized by ultrasounds, were compared with coumarin at different dose-levels on 6 animal groups. The percent reduction of the rat hind paw edema was evaluated at different times.

[3] = tested on: mouse peritoneal macrophages; assay: proteolysis by mouse peritoneal macrophages; settings: for Potency ratio in the proteolytic test: 50 mg/kg i.p. in sesame oil, 10 replication, coumarin = 1; for Mean ICA-soluble fragm. (24 h-0 h) x 10^6 cell: 10 mice; for minimal effective dose: Mus musculus, Peritoneal macrophage, ip; for increase in proteolysis: at the higher doses, coumarin at similar doses
Description: Ability of the 6-fluoro coumarin itself, and the other compounds of the invention, to increase proteolysis by mouse peritoneal macrophages is shown by using the testing procedure reported by T. Bolton and J. R. Casley-Smith, Experimentia, 31, 275 (1975).
Due to the great standard error, many replications are necessary in order to obtain reliable dose-response curves.

[4] = tested on: blood-dot area in right ear; assay: re-absorption of citrated blood injected in the rabbit ear (blood-dot area); assay type: in vivo, New Zealand rabbits; settings: oral, placebo 20.3
Protocol: Finally, the compounds of the invention are able to induce re-absorption of the total citrated blood when blood is injected in the right ear of New Zealand rabbits. 12 hours after blood inoculation into ear, the animal were randomized and treated with scalar doses of the investigated compounds administered for 4 days by oral route. The blood-dot areas are evaluated and compared with the areas of the control animals treated with placebo only. In table 5 are reported some experimental results.

[5] = tested on: S-typhimurium TA 1535, TA 1537, TA 1538, TA 98 and TA 100; assay: Ames test; assay type: cell-based
coagulation factors = assay: coagulation parameters (DPTT, Hepato quick, clotting time); assay type: in vivo
lymphoedemas = assay: preliminary experiments in humans with primary and secondary lymphoedemas; assay type: in vivo; settings: capsules of 50 mg
Protocol: So, a very restricted number of selected male and female patients, affected by primary and secondary lymphoedemas, with intact renal and hepatic functions, was treated with the compounds of the invention, particularly with 6-fluoro coumarin.
In the absence of any other therapeutic treatment, the selected schedule of treatment foresees administration of capsules, many times pro die.
The diagnostic parameters investigated are: general and gastric clinical tolerability; number of red blood cell, leukocites, neutrophiles and platelets; haemoglobin concentration, γ-glutamyl transpeptidase; serum creatinine and volume of edema.

S. Pombae = assay: forward mutation in S. Pombae; assay type: cell-based
dog liver microsomes = assay: incubation of labelled C^14-6 fluoro coumarin with dog liver microsomes; assay type: in vitro ADME; settings: C^14-labelled
Protocol: Using the method reported by T. C. Butler et al. (Arch. Intern. Pharmacod. Ther., 228, 4 (1977)), labelled C^14 -6 fluoro coumarin was incubated with dog liver microsomes.

[6] = cited from earlier work
[7] = tested on: S. typhimurium (TA 1535, TA 1537, TA 1538, TA 98, TA 100); settings: cited from earlier work
[8] = metabolism after oral administration to rabbits, analysis of faeces and urines over 24 hours; settings: rabbit, coumarin in similar experimental conditions
Protocol: In a second experiment, C^14 -labelled 6-fluoro coumarin was administered by oral route to rabbits and faeces and urines were collected during a period of 24 hours. As it is usual for metabolic studies, the excreta were treated by β-glucoronidase and aryl sulfatase and extracted by methylene chloride in a little acid medium. […] In these studies, labelled 6-fluoro coumarin having a 1 Ci/mole specific radioactivity was used.

coagulation = settings: Schofield; Feuer et al.; cited from earlier work
[9] = Occupational Safety and Health Administration; cited from earlier work
[10] = oral, 2 consecutive days, equimolecular doses

For `O=c1oc2ccc(F)cc2cc1Br` [3-Br--6-fluoro, 6-fluoro-3-bromo-2H-1-benzopyran-2-one], the “activity relative to 6-fluoro coumarin (equiactive)” value [1] was 0.85-1.5 times, the “activity relative to coumarin” value [2] was 1.5-2.5 times and the “reduction of carrageenan induced edema” value [2] was “reduce carrageenan induced edema of the rats hind paw at all the times”. For the same compound, the “Potency ratio in the proteolytic test” value [3] was 1.75 and the “% reduction of blood-dot area after 4 days” value (“% reduction of blood-dot area” below) ([4]; 50 mg/kg pro die) was 69%.

For `O=c1oc2ccc(F)cc2cc1Cl` [3-Cl--6-fluoro, 6-fluoro-3-chloro-2H-1-benzopyran-2-one], the “Potency ratio in the proteolytic test” value [3] was 1.4.

With `Cc1cc(=O)oc2ccc(F)cc12` [4-methyl-6-F, 6-fluoro-4-methyl-2H-1-benzopyran-2-one] the “activity relative to 6-fluoro coumarin (equiactive)” value [1] was 0.85-1.5 times, the “activity relative to coumarin” value [2] was 1.5-2.5 times and the “reduction of carrageenan induced edema” value [2] was “reduce carrageenan induced edema of the rats hind paw at all the times”. The “Potency ratio in the proteolytic test” value [3] was 1.78 and the “% reduction of blood-dot area” value ([4]; 50 mg/kg pro die) was 65%.

In the case of `O=c1ccc2cc(F)cc(F)c2o1` [6,8-difluoro, 6,8-difluoro-2H-1-benzopyran-2-one], the “Potency ratio in the proteolytic test” value [3] is reported as 1.45.

For `O=c1ccc2cc(F)ccc2o1` [6-fluoro coumarin, 6-fluoro-2H-1-benzopyran-2-one], the “% inhibition” value ([1]; 12.5 mg/kg oral) was “no sign”, the “Paw volume, DV” value ([1]; 12.5 mg/kg oral) was 0.86 mL and the “Paw volume, 12 h value” ([1]; 12.5 mg/kg oral, basal 1.348) was 2.207 mL. For the same compound, the “% inhibition” value ([1]; 25.0 mg/kg oral) was 37%, the “Paw volume, DV” value ([1]; 25.0 mg/kg oral) was 0.56 mL and the “Paw volume, 12 h value” ([1]; 25.0 mg/kg oral, basal 1.504) was 2.060 mL. The “% inhibition” value ([1]; 50.0 mg/kg oral) was 67%, the “Paw volume, DV” value ([1]; 50.0 mg/kg oral) was 0.29 mL and the “Paw volume, 12 h value” ([1]; 50.0 mg/kg oral, basal 1.464) was 1.760 mL. The “% inhibition” value ([1]; 1000.0 mg/kg oral) was 71%, the “Paw volume, DV” value ([1]; 1000.0 mg/kg oral) was 0.26 mL and the “Paw volume, 12 h value” ([1]; 1000.0 mg/kg oral, basal 1.416) was 1.676 mL. For the same compound, the “mutagenic property in the Ames test” value [5] was “no mutagenic property is evident”, the “activity relative to coumarin” value [2] was 1.5-2.5 times and the “reduction of carrageenan induced edema” value [2] was “reduce carrageenan induced edema of the rats hind paw at all the times”. The “Significance of difference from control” value ([3]; 3.12 mg/kg i.p.) was “NS (p > 0.05)”, the “Mean ICA-soluble fragm. (24 h-0 h) x 10^6 cell” value ([3]; 3.12 mg/kg i.p.) was 0.22 mM glycin and the “Significance of difference from control” value ([3]; 6.25 mg/kg i.p.) was “NS (p > 0.05)”. For the same compound, the “Mean ICA-soluble fragm. (24 h-0 h) x 10^6 cell” value ([3]; 6.25 mg/kg i.p.) was 0.19 mM glycin, the “Significance of difference from control” value ([3]; 12.5 mg/kg i.p.) was “* (0.05 > p > 0.01)” and the “Mean ICA-soluble fragm. (24 h-0 h) x 10^6 cell” value ([3]; 12.5 mg/kg i.p.) was 0.29 mM glycin. For the same compound, the “Mean ICA-soluble fragm. (24 h-0 h) x 10^6 cell” value ([3]; 25 mg/kg i.p.) was 0.37 mM glycin, the “Significance of difference from control” value ([3]; 50 mg/kg i.p.) was “* (0.05 > p > 0.01)” and the “Potency ratio in the proteolytic test” value [3] was 11.5. The “Mean ICA-soluble fragm. (24 h-0 h) x 10^6 cell” value ([3]; 50 mg/kg i.p.) was 0.34 mM glycin, the “Mean ICA-soluble fragm. (24 h-0 h) x 10^6 cell” value ([3]; 100 mg/kg i.p.) was 0.40 mM glycin and the minimal effective dose ([3]; read-out: dosage level with proteolysis significantly greater than the control) was > 6.25 mg/kg. For the same compound, the minimal effective dose ([3]; read-out: dose from which stimulation of protein digestion starts) was 12.5 mg/kg, the increase in proteolysis [3] was “threefold” and the “effect on DPTT” value (coagulation factors; [10]) was “not able to modify”. The “effect on Hepato quick” value (coagulation factors; [10]) was “not able to modify”, the “effect on clotting time” value (coagulation factors; [10]) was “not able to modify” and the tolerability (lymphoedemas; 10 treated patients, all dosages investigated) was “excellent”. For the same compound, the “patients with significant reduction of the oedema volume” value (lymphoedemas; of 10 treated patients) was 4 patients, the “effects in gene mutation test” value (somatic mammalian cells) was “No kinds of effects are noticed” and the “effects in mitotic genic conversion test” value (S. cerevisiae) was “No kinds of effects are noticed”. The “% reduction of blood-dot area” value ([4]; 25 mg/kg pro die) was 64.13%, the “% reduction of blood-dot area” value ([4]; 50 mg/kg pro die) was 92% and the “effects in forward mutation test” value (S. Pombae) was “No kinds of effects are noticed”. The metabolism by cytochromes (dog liver microsomes) was “not metabolized by cytochromes” and the “recovery of unchanged compound” value (dog liver microsomes) was 80%.

For `CC(C)OC1C=Cc2cc(F)ccc2O1` (stereo not shown) [6-fluoro-2.xi.-isopropoxy-2H-1-benzopyrane], the “activity relative to 6-fluoro coumarin (equiactive)” value [1] was 0.85-1.5 times, the “activity relative to coumarin” value [2] was 1.5-2.5 times and the “reduction of carrageenan induced edema” value [2] was “reduce carrageenan induced edema of the rats hind paw at all the times”. For the same compound, the “Potency ratio in the proteolytic test” value [3] was 1.61.

In the case of `COC1C=Cc2cc(F)ccc2O1` (stereo not shown) [6-fluoro-2.xi.-methoxy-2H-1-benzopyrane], the “activity relative to 6-fluoro coumarin (equiactive)” value [1] is reported as 0.85-1.5 times, the “% Reduction of the edema by carrageenan” value ([2]; 0.76 mg/kg i.p., 3 h) is reported as 58% and the “% Reduction of the edema by carrageenan” value ([2]; 1.55 mg/kg i.p., 3 h) is reported as 70%. For the same compound, the “% Reduction of the edema by carrageenan” value ([2]; 3.12 mg/kg i.p., 3 h) was 79%, the “% Reduction of the edema by carrageenan” value ([2]; 3.12 mg/kg i.p., 5 h) was 87% and the “% Reduction of the edema by carrageenan” value ([2]; 6.25 mg/kg i.p., 3 h) was 84%. For the same compound, the “activity relative to coumarin” value [2] was 1.5-2.5 times and the “reduction of carrageenan induced edema” value [2] was “reduce carrageenan induced edema of the rats hind paw at all the times”.

For `OC1C=Cc2cc(F)ccc2O1` (stereo not shown) [6-fluoro-2H--1-benzopyran-2.zeta.-ol, 6-fluoro-2H-1-benzopyran-2.xi.-ol], the “activity relative to coumarin” value [2] was 1.5-2.5 times, the “reduction of carrageenan induced edema” value [2] was “reduce carrageenan induced edema of the rats hind paw at all the times” and the “Potency ratio in the proteolytic test” value [3] was 1.45. The “% reduction of blood-dot area” value ([4]; 40 mg/kg pro die) was 59%.

For `OC1Oc2ccc(F)cc2C=C1Br` (stereo not shown) [6-fluoro-3-bromo-2.xi.-hydroxy-2H-1-benzopyrane], the “% Reduction of the edema by carrageenan” value ([2]; 0.76 mg/kg i.p., 3 h) was 65%, the “% Reduction of the edema by carrageenan” value ([2]; 1.55 mg/kg i.p., 3 h) was 72% and the “% Reduction of the edema by carrageenan” value ([2]; 3.12 mg/kg i.p., 3 h) was 88%. The “% Reduction of the edema by carrageenan” value ([2]; 3.12 mg/kg i.p., 5 h) was 84% and the “% Reduction of the edema by carrageenan” value ([2]; 6.25 mg/kg i.p., 3 h) was 87%.

With `COC1Oc2ccc(F)cc2C=C1Br` (stereo not shown) [6-fluoro-3-bromo-2.xi.-methoxy-2H-1-benzopyrane] the “activity relative to 6-fluoro coumarin (equiactive)” value [1] was 0.85-1.5 times, the “activity relative to coumarin” value [2] was 1.5-2.5 times and the “reduction of carrageenan induced edema” value [2] was “reduce carrageenan induced edema of the rats hind paw at all the times”.

In the case of `O=c1ccc2ccccc2o1` [coumarin, 2H-1-benzopyran-2-one], the inhibition ([1]; 50 mg/kg) is reported as 35%, the “times less active than 6-fluoro coumarin” value ([1]; 50 mg/kg) is reported as “about 2 times” and the “% Reduction of the edema by carrageenan” value ([2]; 1.55 mg/kg i.p., 3 h) is reported as 23%. For the same compound, the “% Reduction of the edema by carrageenan” value ([2]; 3.12 mg/kg i.p., 3 h) was 53%, the “% Reduction of the edema by carrageenan” value ([2]; 3.12 mg/kg i.p., 5 h) was 53.4% and the “% Reduction of the edema by carrageenan” value ([2]; 6.25 mg/kg i.p., 3 h) was 78%. The increase in proteolysis [3] was 2.2 fold, the metabolism in man [6] was “extensively metabolized in man upon first pass through the liver; also recorded: C-3 hydroxylation practically absent in man” and the “effect on Hepato quick” value (coagulation factors; in vivo, po) was “moderately influences Hepato quick (in decreasing way)”. The mutagenicity [7] was “weak mutagenic substance”, the “effects in gene mutation test” value (somatic mammalian cells) was “positive responder” and the “effects in mitotic genic conversion test” value (S. cerevisiae) was “positive responder”. The “metabolism (hydroxylation / lactone ring opening)” value [8] was “metabolized by hydroxylation and also by δ-lactone ring opening; also recorded: metabolized by hydroxylation and by δ-lacton ring opening”, the “% reduction of blood-dot area” value ([4]; 50 mg/kg pro die) was 67.31% and the “effects in forward mutation test” value (S. Pombae) was “positive responder”. The anticoagulant activity (coagulation) was “anticoagulant activites” and the carcinogen category [9] was “category I carcinogen”.

For `O=c1oc2ccccc2c(O)c1Cc1c(O)c2ccccc2oc1=O` [dicoumarol, reference compound], the “effect on DPTT” value (coagulation factors; [10]) is given as “very strong effect”, the “effect on Hepato quick” value (coagulation factors; [10]) is given as “very strong effect” and the anticoagulant activity (coagulation) is given as “anticoagulant activites”.
